# Results published in US20200268768A1, “CENICRIVIROC COMBINATION THERAPY FOR THE TREATMENT OF FIBROSIS” (Tobira Therapeutics, Inc., priority 2015, published 2020).
# Key:
# [1] = tested on: HIV-1 infected adult subjects; assay: Study 202 biomarkers of inflammation; format: in vivo, human
# Description: As an exploratory analysis, levels of inflammation biomarkers MCP-1, sCD14, high sensitivity C-reactive protein [hs-CRP], interleukin-6 [IL-6], D-dimer, and fibrinogen) were measured. Baseline values and changes from baseline at Week 24 and Week 48 of MCP-1, sCD14, hs-CRP, IL-6, D-dimer, and fibrinogen are summarized in Table 22.
# The sCD14 samples were originally analyzed in 2 separate batches: Batch 1 included samples leading up to the Week 24 primary analysis and Batch 2 included Week 32 and Week 48 (end of study) samples. A repeat analysis of archived samples all analyzed in one batch was conducted for consistency in analysis across time points. To control for the effects of covariates, a linear mixed-model repeated-measures analysis was conducted on the changes from baseline in sCD14 (analysis dated September 2013).
# CCR2 = CCR2 (Homo sapiens, UniProt P41597); assay: CCR2 antagonism in in vitro, ex vivo and clinical studies; conditions: Studies 652-2-201 and 652-2-202
# Sequence of CCR2 (P41597 whole entry): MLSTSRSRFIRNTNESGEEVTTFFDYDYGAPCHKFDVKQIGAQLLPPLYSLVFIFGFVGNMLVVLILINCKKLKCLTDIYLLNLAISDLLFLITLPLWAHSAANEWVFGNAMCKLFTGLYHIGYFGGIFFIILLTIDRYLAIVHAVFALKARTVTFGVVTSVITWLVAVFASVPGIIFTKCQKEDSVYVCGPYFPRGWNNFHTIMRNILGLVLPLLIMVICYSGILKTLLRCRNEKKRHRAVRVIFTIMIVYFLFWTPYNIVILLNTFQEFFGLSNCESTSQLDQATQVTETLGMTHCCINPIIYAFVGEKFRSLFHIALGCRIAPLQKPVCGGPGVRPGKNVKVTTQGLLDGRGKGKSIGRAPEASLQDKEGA
# From the text: (§1) Clinical evidence of CCR2 and CCR5 antagonism was established by measuring changes from baseline in plasma MCP-1 (a ligand of CCR2) concentrations and changes in plasma HIV-RNA (CCR5 co-receptor required for HIV entry), respectively, in these 2 Phase 2 Studies.
# CCR5 = CCR5 (Homo sapiens, UniProt P51681); assay: CCR5 antagonism in in vitro, ex vivo and clinical studies; conditions: Studies 652-2-201 and 652-2-202
# Sequence of CCR5 (P51681 whole entry): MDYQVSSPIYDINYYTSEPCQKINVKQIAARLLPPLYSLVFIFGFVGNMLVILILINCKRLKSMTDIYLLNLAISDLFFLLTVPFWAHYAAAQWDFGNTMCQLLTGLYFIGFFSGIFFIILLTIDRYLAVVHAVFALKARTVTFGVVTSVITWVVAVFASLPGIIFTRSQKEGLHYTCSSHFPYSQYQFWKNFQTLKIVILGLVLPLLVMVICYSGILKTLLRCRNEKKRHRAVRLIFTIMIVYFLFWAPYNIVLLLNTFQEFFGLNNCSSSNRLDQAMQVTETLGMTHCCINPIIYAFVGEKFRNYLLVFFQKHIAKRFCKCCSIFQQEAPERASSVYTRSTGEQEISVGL
# From the text: as §1
# [2] = Chronic (3- and 9-month) monkey toxicity studies; format: in vivo
structure (smiles),measurement,setting,value
"CCCCOCCOc1ccc(-c2ccc3c(c2)C=C(C(=O)Nc2ccc([S@@+]([O-])Cc4cncn4CCC)cc2)CCCN3CC(C)C)cc1 [CVC, (S)-8-[4-(2-Butoxyethoxy)phenyl]-1-isobutyl-N-(4-{[(1-propyl-1H-imidazol-5-yl)methyl]sulfinyl}phenyl)-1,2,3,4-tetrahydro-1-benzazocine-5-carboxamide]","sCD14 (original values) change from baseline, mean","[1]; CVC 100 mg, Week 12",-140000 pg/mL
same,"sCD14 (original values) change from baseline, median","[1]; CVC 100 mg, Week 12",-160000 pg/mL
same,"D-dimer change from baseline, mean","[1]; CVC 100 mg, Week 24",-32 ng/mL
same,"D-dimer change from baseline, median","[1]; CVC 100 mg, Week 24",-1.0 ng/mL
same,"Fibrinogen change from baseline, mean","[1]; CVC 100 mg, Week 24",-3 mg/dL
same,"Fibrinogen change from baseline, median","[1]; CVC 100 mg, Week 24",-14 mg/dL
same,"IL-6 change from baseline, mean","[1]; CVC 100 mg, Week 24",0.42 pg/mL
same,"IL-6 change from baseline, median","[1]; CVC 100 mg, Week 24",0.00 pg/mL
same,"MCP-1 change from baseline, mean","[1]; CVC 100 mg, Week 24",493 pg/mL
same,"MCP-1 change from baseline, median","[1]; CVC 100 mg, Week 24",429 pg/mL
same,"hs-CRP change from baseline, mean","[1]; CVC 100 mg, Week 24",-0.16 mg/dL
same,"hs-CRP change from baseline, median","[1]; CVC 100 mg, Week 24",-0.03 mg/dL
same,"sCD14 (original values) change from baseline, mean","[1]; CVC 100 mg, Week 24",-190000 pg/mL
same,"sCD14 (original values) change from baseline, median","[1]; CVC 100 mg, Week 24",-180000 pg/mL
same,"sCD14 (original values) change from baseline, mean","[1]; CVC 100 mg, Week 32",110000 pg/mL
same,"sCD14 (original values) change from baseline, median","[1]; CVC 100 mg, Week 32",120000 pg/mL
same,"D-dimer change from baseline, mean","[1]; CVC 100 mg, Week 48",-41 ng/mL
same,"D-dimer change from baseline, median","[1]; CVC 100 mg, Week 48",-1.0 ng/mL
same,"Fibrinogen change from baseline, mean","[1]; CVC 100 mg, Week 48",11 mg/dL
same,"Fibrinogen change from baseline, median","[1]; CVC 100 mg, Week 48",15 mg/dL
same,"IL-6 change from baseline, mean","[1]; CVC 100 mg, Week 48",0.29 pg/mL
same,"IL-6 change from baseline, median","[1]; CVC 100 mg, Week 48",0.00 pg/mL
same,"MCP-1 change from baseline, mean","[1]; CVC 100 mg, Week 48",636 pg/mL
same,"MCP-1 change from baseline, median","[1]; CVC 100 mg, Week 48",523 pg/mL
same,"hs-CRP change from baseline, mean","[1]; CVC 100 mg, Week 48",-0.08 mg/dL
same,"hs-CRP change from baseline, median","[1]; CVC 100 mg, Week 48",-0.01 mg/dL
same,"sCD14 (original values) change from baseline, mean","[1]; CVC 100 mg, Week 48",100000 pg/mL
same,"sCD14 (original values) change from baseline, median","[1]; CVC 100 mg, Week 48",100000 pg/mL
same,"sCD14 (original values) change from baseline, mean","[1]; CVC 200 mg, Week 12",-230000 pg/mL
same,"sCD14 (original values) change from baseline, median","[1]; CVC 200 mg, Week 12",-210000 pg/mL
same,"D-dimer change from baseline, mean","[1]; CVC 200 mg, Week 24",-64 ng/mL
same,"D-dimer change from baseline, median","[1]; CVC 200 mg, Week 24",-50 ng/mL
same,"Fibrinogen change from baseline, mean","[1]; CVC 200 mg, Week 24",-7 mg/dL
same,"Fibrinogen change from baseline, median","[1]; CVC 200 mg, Week 24",-8 mg/dL
same,"IL-6 change from baseline, mean","[1]; CVC 200 mg, Week 24",0.81 pg/mL
same,"IL-6 change from baseline, median","[1]; CVC 200 mg, Week 24",0.00 pg/mL
same,"MCP-1 change from baseline, mean","[1]; CVC 200 mg, Week 24",753 pg/mL
same,"MCP-1 change from baseline, median","[1]; CVC 200 mg, Week 24",695 pg/mL
same,"hs-CRP change from baseline, mean","[1]; CVC 200 mg, Week 24",-0.04 mg/dL
same,"hs-CRP change from baseline, median","[1]; CVC 200 mg, Week 24",-0.04 mg/dL
same,"sCD14 (original values) change from baseline, mean","[1]; CVC 200 mg, Week 24",-230000 pg/mL
same,"sCD14 (original values) change from baseline, median","[1]; CVC 200 mg, Week 24",-190000 pg/mL
same,"sCD14 (original values) change from baseline, mean","[1]; CVC 200 mg, Week 32",20000 pg/mL
same,"sCD14 (original values) change from baseline, median","[1]; CVC 200 mg, Week 32",-20000 pg/mL
same,"D-dimer change from baseline, mean","[1]; CVC 200 mg, Week 48",-70 ng/mL
same,"D-dimer change from baseline, median","[1]; CVC 200 mg, Week 48",-50 ng/mL
same,"Fibrinogen change from baseline, mean","[1]; CVC 200 mg, Week 48",-10 mg/dL
same,"Fibrinogen change from baseline, median","[1]; CVC 200 mg, Week 48",-13 mg/dL
same,"IL-6 change from baseline, mean","[1]; CVC 200 mg, Week 48",-0.04 pg/mL
same,"IL-6 change from baseline, median","[1]; CVC 200 mg, Week 48",0.00 pg/mL
same,"MCP-1 change from baseline, mean","[1]; CVC 200 mg, Week 48",900 pg/mL
same,"MCP-1 change from baseline, median","[1]; CVC 200 mg, Week 48",756 pg/mL
same,"hs-CRP change from baseline, mean","[1]; CVC 200 mg, Week 48",-0.18 mg/dL
same,"hs-CRP change from baseline, median","[1]; CVC 200 mg, Week 48",-0.04 mg/dL
same,"sCD14 (original values) change from baseline, mean","[1]; CVC 200 mg, Week 48",-40000 pg/mL
same,"sCD14 (original values) change from baseline, median","[1]; CVC 200 mg, Week 48",-40000 pg/mL
same,Antagonism of CCR2,CCR2,potent and concentration-dependent antagonism
same,Antagonism of CCR5,CCR5,potent and concentration-dependent antagonism
same,Plasma MCP-1 levels over controls,"[2]; 1000 mg/kg/day, chronic (3- and 9-month) monkey toxicity studies",~5 fold
same,"Inflammation in clinical pathology parameters or any tissue, including the liver, by microscopic evaluation",[2]; high dose of 1000 mg/kg/day,No indication of inflammation
